Experimental findings from patent US10041937B2, “Macrophage identification agent, and identification method, sorting method, evaluation method, screening method and kit using the macrophage identifier agent” (CANON KABUSHIKI KAISHA, priority 2013, dated 2018) are described below.

Test [1] relates to M1 macrophages and M2 macrophages differentiated from mouse bone marrow cells. As to the kind of experiment: Subtype identification by staining and flow cytometry of M1 and M2 macrophages differentiated from mouse bone marrow cells. Type of test: cell-based, Balb/c mouse. The following applies: for Resolution ratio R: M1 vs M2 macrophages from mouse bone marrow cells; for Evaluation of macrophage subtype identification: class based on resolution R; for Peak position of M1 macrophage: mouse bone marrow-derived M1 macrophages; for Peak position of M1 macrophage / Peak position of M2 macrophage: channel listed per compound; for Peak position of M2 macrophage: mouse bone marrow-derived M2 macrophages; for subtype more strongly stained: two compounds used in combination, each 1 μM. Put shortly: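 Balb/c mouse bone marrow cells were differentiated to macrophages with 50 ng/mL M-CSF over two 3–4-day periods, then polarized for 3 days to M1 (interferon-γ plus polyliposaccharide) or M2 (IL-4). Live cells (aqua dye-negative) were analysed by flow cytometry; resolution R = |FM1−FM2|/(WM1+WM2) from histogram peak positions and widths indexed subtype discrimination.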
Background: Flow cytometry measures light scatter and fluorescence of single cells or particles in a stream.

In test [2] the test system is M1 macrophages and M2 macrophages differentiated from THP-1 cells. As to the kind of experiment: Identification of macrophage subtypes differentiated from human cell line THP-1. The following applies: THP-1 derived M1 and M2. Type of test: cell-based. The method, then:
The fluorescent signals derived from the compounds (3), (4), (6), (7), (9), (11) to (13), (15), (17), (19) to (26), (28), (30) to (33), (35), (36), (38), (42) to (45), (48) to (62), (65), (67), (74) to (76), (82), (83) and (85) and the comparative compounds (1) and (2) were measured in channels suitable to the respective compounds. Histograms were prepared by plotting fluorescence intensities obtained in the respective channels on the abscissa and plotting the numbers of cells at each fluorescence intensity on the ordinate. A difference between a fluorescence intensity (FM1) at a peak top of the histogram of the M1 macrophage and a fluorescence intensity (FM2) at a peak top of the histogram of the M2 macrophage is divided by a sum of a peak width (WM1) of the histogram of the M1 macrophage and a peak width (WM2) of the histogram of the M2 macrophage, so as to obtain a resolution R, which was used as an index of the identification ability for a subtype (see the following expression (1)). Resolution R=|FM1−FM2|/(WM1+WM2) Expression (1)
Based on the thus obtained values of the resolution R, the identification abilities for the subtypes of the compounds (3), (4), (6), (7), (9), (11) to (13), (15), (17), (19) to (26), (28), (30) to (33), (35), (36), (38), (42) to (45), (48) to (62), (65), (67), (74) to (76), (82), (83) and (85) and the comparative compounds (1) and (2) were evaluated as any of A to C according to the following criteria, and if the resolution R was 0.15 or more, the compound was determined to be good in the subtype identification.
The subtypes were identified by using the compound (1) in the same manner as in Example 1 except that the macrophage subtypes differentiated from the mouse bone marrow cells were changed to macrophage subtypes differentiated from a cell line established from human acute monocytic leukemia.
The culture of subtypes was performed with reference to NPL 10. Specifically, THP-1 cells purchased from JCRB Cell Bank of National Institute of Biomedical Innovation, that is, a cell line established from human acute monocytic leukemia, were subcultured several times, and the resultant cells were dispersed to a concentration of 5.0×10^5/mL in an RPMI1640 containing 10% FBS and 1% P/S, and 5.0×10^6 cells were seeded in a 100 mm dish. The monocytes were differentiated into macrophages by incubating the resultant in the presence of 5% CO2 at 37° C. for 2 days with 500 ng of PMA added thereto. After exchanging the medium, by adding 200 ng of interferon-γ and 1 μg of polyliposaccharide (both manufactured by Pepro Tech) to the medium, the cells were differentiated to the subtype M1. Besides, by adding 200 ng of IL-4 and IL-13, the cells were differentiated to the subtype M2. After incubation performed in the presence of 5% CO2 at 37° C. for 24 hours, the resultant was rinsed with PBS, and PBS containing 0.25% trypsin and 1 mM EDTA (ethylenediaminetetraacetic acid) was used for collecting, from the dish, the macrophages having been differentiated to the subtypes M1 and M2.
Specifically, fluorescent signals derived from the compounds (1) (3) (4) (12) and (15) were measured by using the channels which are appropriate for each of the compounds and the identification abilities for the subtypes of the compounds were evaluated based on the values of the resolution R.

The subject of test [3] is mixture of the M1 macrophages and the M2 macrophages. Description: Sorting of subtypes from a mixture of M1 and M2 macrophages with an FACS apparatus. Type of test: cell-based, mouse. The following applies: compound 1 μM; for sorting of identified M1 and M2 macrophages: FACS apparatus; for subtype more strongly stained: mixed M1 and M2 macrophages.
The test system of test [4] is M1 macrophages and M2 macrophages. As to the kind of experiment: Analysis of export inhibition of the identification agent by a test substance (FTC, MK-571, DIDS). Type of test: cell-based, mouse. The method, then: Besides, Fumitremorgin C (manufactured by Sigma-Aldrich, hereinafter referred to as FTC) was added thereto, as a substance for inhibiting export of the compound (1) having been imported into cells, to a concentration of 10 μM, and the resultant was incubated at 37° C. for 30 minutes. Thereafter, the tube was centrifuged at 180 G for 10 minutes to remove the supernatant, and then, 1 mL of a HBSS buffer containing the FTC in a concentration of 10 μM was added thereto to suspend the cells, and the resultant was further incubated at 37° C. for 30 minutes.
Furthermore, each tube was centrifuged at 180 G for 10 minutes to remove the supernatant, the cells were suspended by adding the dye aqua for identifying dead cells thereto, and the resultant was incubated at 4° C. for 10 minutes. Thereafter, the tube was centrifuged at 180 G for 10 minutes to remove the supernatant, and then, the cells were suspended in a FACS buffer and analyzed by using a FACSCanto (trademark) II flow cytometry apparatus manufactured by BD.
The analysis was performed on a cell population showing a low signal for the aqua, so as to analyze a cell population from which dead cells were eliminated.
The analysis was performed in the same manner as in Example 57 except that the FTC was not added.
Thereafter, the tube was centrifuged at 180 G for 10 minutes to remove the supernatant, and then, 1 mL of a HBSS buffer containing the MK-571 in a concentration of 10 μM was added thereto to suspend the cells, and the resultant was further incubated at 37° C. for 30 minutes.
The analysis was performed in the same manner as in Example 79 except that the MK-571 was not added. […] The degree of the enhancement of the peak intensity caused by adding the MK-571 was evaluated by calculating the resolution R described above by using peak intensities in histograms prepared with and without adding the MK-571.
Thereafter, the tube was centrifuged at 180 G for 10 minutes to remove the supernatant, and then, 1 mL of a HBSS buffer containing the DIDS in a concentration of 10 μM was added thereto to suspend the cells, and the resultant was further incubated at 37° C. for 30 minutes.

The test system of test [5] is M1 macrophages and M2 macrophages differentiated from RAW264.7 cells. As to the kind of experiment: Identification of macrophage subtypes differentiated from mouse cell line RAW264.7. The format is cell-based. The conditions noted are these: RAW264.7 derived M1 and M2. The method, then: The subtypes were identified by using the compound (1) in the same manner as in Example 1 except that the macrophage subtypes differentiated from the mouse bone marrow cells were changed to macrophage subtypes differentiated from a cell line established from mouse monocytic leukemia.
The culture of subtypes was performed with reference to NPL 9. Specifically, RAW264.7 cells purchased from American Type Culture Collection, that is, a cell line established from mouse monocytic leukemia, were subcultured several times, and the resultant cells were dispersed to a concentration of 3.3×10^4/mL in a D-MEM containing 10% FBS, 1% P/S and 1% MEM-NEAA, and 3.3×10^5 cells were seeded in a 100 mm dish. The cells were grown by incubation performed in the presence of 5% CO2 at 37° C. After 2 to 4 days, it was confirmed that an area of about to 70% of the bottom of the dish had been covered by the cells, the medium was then exchanged, and by adding 200 ng of interferon-γ and 1 μg of polyliposaccharide (both manufactured by Pepro Tech) to the medium, the cells were differentiated to the subtype M1. Besides, by adding 100 ng of IL-4, the cells were differentiated to the subtype M2. […]
A histogram was prepared by plotting fluorescence intensity obtained in the FITC channel on the abscissa and plotting the number of cells at each fluorescence intensity on the ordinate, which is shown in FIG. 9.

The mark [6] stands for this setting: general formula (10) dyes (Table 8).
The mark [7] stands for this setting: general formula (11) dyes (Table 9).

In the case of `CCN(CC)c1ccc2cc(-c3nc4cc(Cl)ccc4o3)c(=O)oc2c1` [compound (120)], in test [1] (setting [6]), the “Resolution ratio R” value was determined as 0.676; the “Evaluation of macrophage subtype identification” value (“Evaluation” below) is recorded as “A (The compound is very good in the subtype identification (namely, the resolution R is 0.5 or more))”; the “Peak position of M1 macrophage” value came out at 10.1; the “Peak position of M2 macrophage” value is given as 5.60. In addition, the “subtype more strongly stained” value in test [1] is on record as “more strongly stain the M1 macrophages than the M2 macrophages”. Moreover, the “subtype more strongly stained” value in test [2] was “the M1 macrophages were stained more strongly by the compound (120) than the M2 macrophages”. In test [3], the “sorting of identified M1 and M2 macrophages” value is “could be each sorted with an FACS apparatus”; the “subtype more strongly stained” value is reported as “stain the M1 macrophages more strongly than the M2 macrophages”.

In the case of `CCC1=C(C)C2=C(C)c3c(C)c(CC)c(C)n3[B-](F)(F)[N+]2=C1C` [compound (139)], in test [1] (setting [7]), the “Resolution ratio R” value worked out at 1.023; the “Evaluation” value is reported as “A (The compound is very good in the subtype identification (namely, the resolution R is 0.5 or more))”; the “Peak position of M1 macrophage” value stood at 220; the “Peak position of M2 macrophage” value was 47.8. The “subtype more strongly stained” value in test [1] is “the M1 macrophages show higher fluorescence intensity in the FITC channel than the M2 macrophages”. Further, the “subtype more strongly stained” value in test [2] is “the M1 macrophages were stained more strongly by the compound (139) than the M2 macrophages”. Also, in test [3], the “sorting of identified M1 and M2 macrophages” value is reported as “could be each sorted with an FACS apparatus”; the “subtype more strongly stained” value was “staining the M1 macrophages more strongly than the M2 macrophages”.

On to `COc1ccc2c3c([nH]c2c1)[C@H](C=C(C)C)N1C(=O)[C@@H]2CCCN2C(=O)[C@@H]1C3` [FTC, Fumitremorgin C], for which, in test [4] (FTC 10 μM, compound (1) 1 μM), the “enhancement of the fluorescence intensity caused by inhibition of export of the compound (1)” value is “observed merely in the M2 macrophages”.

`CCN(CC)c1ccc2cc(-c3nc4ccccc4s3)c(=O)oc2c1` [compound (129)]: in test [1] (setting [6]), the “Resolution ratio R” value was 0.709; the “Evaluation” value is given as “A (The compound is very good in the subtype identification (namely, the resolution R is 0.5 or more))”; the “Peak position of M1 macrophage” value was 31.0; the “Peak position of M2 macrophage” value is 13.0. Moreover, the “subtype more strongly stained” value in test [2] was “the M1 macrophages were stained more strongly by the compound (129) than the M2 macrophages”. Also, in test [5], the “subtype more strongly stained” value is “the M1 macrophages were stained more strongly by the compound (129) than the M2 macrophages”.

In the case of `CN(C)C(=O)CCSC(SCCC(=O)O)c1cccc(/C=C/c2ccc3ccc(Cl)cc3n2)c1` (stereo not drawn) [MK-571], the “degree of the enhancement of the peak intensity (resolution R with and without MK-571)” value in test [4] (M1 macrophages, MK-571 10 μM, compound (113) 1 μM) is on record as 0.406; in test [4] (M1 macrophages, MK-571 10 μM, compound (120) 1 μM) it was 0.739; in test [4] (M2 macrophages, MK-571 10 μM, compound (113) 1 μM) it was 0.438; in test [4] (M2 macrophages, MK-571 10 μM, compound (120) 1 μM) it was 0.730. Further, the “enhancement of the fluorescence intensity caused by inhibition of export of the compound (113)” value in test [4] (MK-571 10 μM, compound (113) 1 μM) was “observed in both the M1 macrophages and the M2 macrophages”. Also, the “enhancement of the fluorescence intensity caused by inhibition of export of the compound (120)” value in test [4] (MK-571 10 μM, compound (120) 1 μM) is “observed in both the M1 macrophages and the M2 macrophages”.

Consider `O=S(=O)(O)c1cc(N=C=S)ccc1C=Cc1ccc(N=C=S)cc1S(=O)(=O)O` [DIDS, 4,4′-diisothiocyanatostilbene-2,2′-disulfonic acid], for which the “enhancement of the fluorescence intensity caused by inhibition of export of the compound (139)” value in test [4] (DIDS 10 μM, compound (139) 1 μM) is listed as “observed merely in the M1 macrophages”.
